# According to patent publication US20220153734A1, “Pyrazolopyridine Compounds For IRE1 Inhibition” (Optikira, LLC, priority 2019, published 2022):
# Key:
# [1] = system: ARPE-19 cells stably expressing XBP1 (a.a. 1-376); experiment: Cellular XBP1 splicing assay (NanoLuc luciferase, thapsigargin); format: cell-based; settings: thapsigargin 150 nM
# Procedure, shortened: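 ARPE-19 cells carrying an XBP1(1-376)-NanoLuc splicing reporter were pretreated with compound (10-point ½-log series, 0.117% DMSO) for 30 min, then stressed with 150 nM thapsigargin for 4 h at 37° C. Luminescence was read, and IC50 values came from sigmoidal fits of percent inhibition of control.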
# [2] = biological target: T1, IRE1α (Homo sapiens, UniProt O75460); experiment: Biochemical assay: inhibition of RNase activity of IRE1α; settings: enzyme 0.325 nM, substrate 100 nM, 20 minutes
# T1 construct: purchased Signal Chem E31-11G
# T1 sequence (O75460 468-977 limits assumed): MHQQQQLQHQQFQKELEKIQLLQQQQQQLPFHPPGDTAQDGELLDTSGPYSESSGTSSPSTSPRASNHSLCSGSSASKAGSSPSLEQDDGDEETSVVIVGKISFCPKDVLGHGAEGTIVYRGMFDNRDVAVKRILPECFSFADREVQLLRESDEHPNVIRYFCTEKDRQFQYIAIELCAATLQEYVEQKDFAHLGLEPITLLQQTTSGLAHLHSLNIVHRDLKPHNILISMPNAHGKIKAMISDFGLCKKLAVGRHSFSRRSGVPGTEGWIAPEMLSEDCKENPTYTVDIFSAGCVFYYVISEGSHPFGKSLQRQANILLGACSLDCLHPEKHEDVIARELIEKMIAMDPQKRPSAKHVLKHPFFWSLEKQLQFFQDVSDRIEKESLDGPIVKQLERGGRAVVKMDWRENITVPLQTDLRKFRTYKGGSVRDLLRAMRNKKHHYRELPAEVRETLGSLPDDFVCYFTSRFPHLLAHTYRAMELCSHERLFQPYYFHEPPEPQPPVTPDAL
# Procedure, shortened: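 Recombinant IRE1α (0.325 nM final) pre-incubated 30 min at room temperature with compounds (10-point ½-log series, duplicate, 4% DMSO final). Then 100 nM fluorophore/quencher-labelled RNA substrate added in 50 mM Tris, 0.5 mM MgCl2, 10 mM KCl, 2 mM DTT. Urea stop after 20 min; fluorescence read; IC50 from sigmoidal fit.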
SMILES,"IC50 ([1]; Homo sapiens, ARPE-19, 4 h)",IC50 [2],IC50 ([1]; 4 hour)
"COCCN(CCOC)[C@H]1CC[C@H](c2cnc(N)c3c(-c4cc(F)c(NS(=O)(=O)c5ccccc5F)cc4F)nn(C(C)C)c32)CC1 [Compound A35, N-(4-(4-amino-7-((1r,4r)-4-(bis(2-methoxyethyl)amino)cyclohexyl)-1-isopropyl-1H-pyrazolo[4,3-c]pyridin-3-yl)-2,5-difluorophenyl)-2-fluorobenzenesulfonamide]",55 nM,60 nM,
"COCCN[C@H]1CC[C@H](c2cnc(N)c3c(-c4cc(F)c(NS(=O)(=O)Cc5ccccc5Cl)cc4F)nn(C(C)C)c32)CC1 [Compound A20, N-(4-(4-amino-1-isopropyl-7-((1r,4r)-4-((2-methoxyethyl)amino)cyclohexyl)-1H-pyrazolo[4,3-c]pyridin-3-yl)-2,5-difluorophenyl)-1-(2-chlorophenyl)methanesulfonamide]",13 nM,1.2 nM,
"Nc1ncc([C@H]2CC[C@H](NC3COC3)CC2)c2c1c(-c1ccc(NS(=O)(=O)Cc3ccccc3Cl)c(F)c1)nn2C1CC1 [Compound A55, N-(4-(4-amino-1-cyclopropyl-7-((1r,4r)-4-(oxetan-3-ylamino)cyclohexyl)-1H-pyrazolo[4,3-c]pyridin-3-yl)-2-fluorophenyl)-1-(2-chlorophenyl)methanesulfonamide]",7.2 nM,0.7 nM,
"COCCN[C@H]1CC[C@H](c2cnc(N)c3c(-c4ccc(NS(=O)(=O)c5ccccc5F)c(F)c4)nn(C(C)C)c32)CC1 [Compound A6, N-(4-(4-amino-1-isopropyl-7-((1r,4r)-4-((2-methoxyethyl)amino)cyclohexyl)-1H-pyrazolo[4,3-c]pyridin-3-yl)-2-fluorophenyl)-2-fluorobenzenesulfonamide]",2.7 nM,2.6 nM,
"Nc1ncc([C@H]2CC[C@H](NC3COC3)CC2)c2c1c(-c1ccc(NS(=O)(=O)Cc3ccccc3F)c(F)c1)nn2C1CC1 [Compound A54, N-(4-(4-amino-1-cyclopropyl-7-((1r,4r)-4-(oxetan-3-ylamino)cyclohexyl)-1H-pyrazolo[4,3-c]pyridin-3-yl)-2-fluorophenyl)-1-(2-fluorophenyl)methanesulfonamide]",9 nM,0.9 nM,
"COCCN[C@H]1CC[C@H](c2cnc(N)c3c(-c4cc(F)c(NS(=O)(=O)c5ccccc5F)cc4F)nn(C(C)C)c32)CC1 [Compound A37, N-(4-(4-amino-1-isopropyl-7-((1r,4r)-4-((2-methoxyethyl)amino)cyclohexyl)-1H-pyrazolo[4,3-c]pyridin-3-yl)-2,5-difluorophenyl)-2-fluorobenzenesulfonamide]",20 nM,12 nM,
"COCCN(C)[C@H]1CC[C@H](c2cnc(N)c3c(-c4cc(F)c(NS(=O)(=O)c5ccccc5F)cc4F)nn(C(C)C)c32)CC1 [Compound A36, N-(4-(4-amino-1-isopropyl-7-((1r,4r)-4-((2-methoxyethyl)(methyl)amino)cyclohexyl)-1H-pyrazolo[4,3-c]pyridin-3-yl)-2,5-difluorophenyl)-2-fluorobenzenesulfonamide]",18 nM,13 nM,
"CC(C)n1nc(-c2ccc(NS(=O)(=O)c3ccccc3Cl)c(F)c2)c2c(N)ncc(C3=CCC(NC4COC4)CC3)c21 (racemic) [racemic mixture of B56 & B57, N-(4-(4-amino-1-isopropyl-7-(4-(oxetan-3-ylamino)cyclohex-1-en-1-yl)-1H-pyrazolo[4,3-c]pyridin-3-yl)-2-fluorophenyl)-2-chlorobenzenesulfonamide]",52 nM,26 nM,
"Cc1ccc(F)c(S(=O)(=O)Nc2ccc(-c3nn(C(C)C)c4c(C5=CCC(NC6COC6)CC5)cnc(N)c34)cc2F)c1 (racemic) [racemic mixture of B16 & B17, N-(4-(4-amino-1-isopropyl-7-(4-(oxetan-3-ylamino)cyclohex-1-en-1-yl)-1H-pyrazolo[4,3-c]pyridin-3-yl)-2-fluorophenyl)-2-fluoro-5-methylbenzenesulfonamide]",94 nM,13 nM,
"COCCN[C@H]1CC[C@H](c2cnc(N)c3c(-c4cc(F)c(NS(=O)(=O)c5cc(Cl)ccc5F)cc4F)nn(C(C)C)c32)CC1 [Compound A4, N-(4-(4-amino-1-isopropyl-7-((1r,4r)-4-((2-methoxyethyl)amino)cyclohexyl)-1H-pyrazolo[4,3-c]pyridin-3-yl)-2,5-difluorophenyl)-5-chloro-2-fluorobenzenesulfonamide]",10 nM,1.3 nM,

# Second part, the molecule after the results:
"IC50 ([1]; Homo sapiens, ARPE-19, 4 h)",IC50 [2],IC50 ([1]; 4 hour),SMILES
340 nM,21 nM,,"CCn1nc(-c2cc(F)c(NS(=O)(=O)Cc3ccccc3Cl)cc2F)c2c(N)ncc(C3=CCC(NC4COC4)CC3)c21 (stereo not drawn) [Compound B32, N-(4-(4-amino-1-ethyl-7-(4-(oxetan-3-ylamino)cyclohex-1-en-1-yl)-1H-pyrazolo[4,3-c]pyridin-3-yl)-2,5-difluorophenyl)-1-(2-chlorophenyl)methanesulfonamide]"
740 nM,82 nM,,"CCn1nc(-c2cc(F)c(NS(=O)(=O)c3ccccc3F)cc2F)c2c(N)ncc(C3=CCC(NC4COC4)CC3)c21 (stereo not drawn) [Compound B30, N-(4-(4-amino-1-ethyl-7-(4-(oxetan-3-ylamino)cyclohex-1-en-1-yl)-1H-pyrazolo[4,3-c]pyridin-3-yl)-2,5-difluorophenyl)-2-fluorobenzenesulfonamide]"
,3.4 nM,47 nM,"CC(CF)NC1CC=C(c2cnc(N)c3c(-c4ccc(NS(=O)(=O)Cc5ccccc5Cl)c(F)c4)nn(C(C)C)c23)CC1 (single isomer, unassigned) [Compound B45, N-(4-(4-amino-7-(4-((1-fluoropropan-2-yl)amino)cyclohex-1-en-1-yl)-14sopropyl-1H-pyrazolo[4,3-c]pyridin-3-yl)-2-fluorophenyl)-1-(2-chlorophenyl)methanesulfonamide]"
,7.8 nM,9.8 nM,"COCCNC1CC=C(c2cnc(N)c3c(-c4ccc(NS(=O)(=O)c5ccccc5Cl)c(F)c4)nn(C(C)C)c23)CC1 (single isomer, unassigned) [Compound B52, N-(4-(4-amino-1-isopropyl-7-(4-((2-methoxyethyl)amino)cyclohex-1-en-1-yl)-1H-pyrazolo[4,3-c]pyridin-3-yl)-2-fluorophenyl)-2-chlorobenzenesulfonamide]"
,6.1 nM,10 nM,"CC(CF)NC1CC=C(c2cnc(N)c3c(-c4ccc(NS(=O)(=O)c5ccccc5Cl)c(F)c4)nn(C(C)C)c23)CC1 (single isomer, unassigned) [Compound B41, N-(4-(4-amino-7-(4-((1-fluoropropan-2-yl)amino)cyclohex-1-en-1-yl)-1-isopropyl-1H-pyrazolo[4,3-c]pyridin-3-yl)-2-fluorophenyl)-2-chlorobenzenesulfonamide]"
,6.7 nM,19 nM,"COc1ccc(Cl)c(S(=O)(=O)Nc2ccc(-c3nn(C(C)C)c4c(C5=CCC(NC6COC6)CC5)cnc(N)c34)cc2F)c1 (single isomer, unassigned) [Compound B8, N-(4-(4-amino-1-isopropyl-7-(4-(oxetan-3-ylamino)cyclohex-1-en-1-yl)-1H-pyrazolo[4,3-c]pyridin-3-yl)-2-fluorophenyl)-2-chloro-5-methoxybenzenesulfonamide]"
,51 nM,210 nM,"CCn1nc(-c2ccc(NS(=O)(=O)c3cc(C)ccc3F)c(F)c2)c2c(N)ncc(C3=CCC(NC4COC4)CC3)c21 (single isomer, unassigned) [Compound B36, N-(4-(4-amino-1-ethyl-7-(4-(oxetan-3-ylamino)cyclohex-1-en-1-yl)-1H-pyrazolo[4,3-c]pyridin-3-yl)-2-fluorophenyl)-2-fluoro-5-methylbenzenesulfonamide]"
,2 nM,28 nM,"COCCNC1CC=C(c2cnc(N)c3c(-c4ccc(NS(=O)(=O)Cc5ccccc5Cl)c(F)c4)nn(C(C)C)c23)CC1 (single isomer, unassigned) [Compound B54, N-(4-(4-amino-1-isopropyl-7-(4-((2-methoxyethyl)amino)cyclohex-1-en-1-yl)-1H-pyrazolo[4,3-c]pyridin-3-yl)-2-fluorophenyl)-1-(2-chlorophenyl)methanesulfonamide]"
74 nM,20 nM,,"CCn1nc(-c2ccc(NS(=O)(=O)c3cc(OC)ccc3Cl)c(F)c2)c2c(N)ncc(C3=CCC(NC4COC4)CC3)c21 (stereo not drawn) [Compound B37, N-(4-(4-amino-1-ethyl-7-(4-(oxetan-3-ylamino)cyclohex-1-en-1-yl)-1H-pyrazolo[4,3-c]pyridin-3-yl)-2-fluorophenyl)-2-chloro-5-methoxybenzenesulfonamide]"
,53 nM,580 nM,"CCn1nc(-c2ccc(NS(=O)(=O)Cc3ccccc3Cl)cc2)c2c(N)ncc(C3=CCC(NC4COC4)CC3)c21 (single isomer, unassigned) [Compound B24, N-(4-(4-amino-1-ethyl-7-(4-(oxetan-3-ylamino)cyclohex-1-en-1-yl)-1H-pyrazolo[4,3-c]pyridin-3-yl)phenyl)-1-(2-chlorophenyl)methanesulfonamide]"
,17 nM,70 nM,"COCCNC1CC=C(c2cnc(N)c3c(-c4ccc(NS(=O)(=O)c5ccccc5Cl)c(F)c4)nn(C(C)C)c23)CC1 (single isomer, unassigned) [Compound B53, N-(4-(4-amino-1-isopropyl-7-(4-((2-methoxyethyl)amino)cyclohex-1-en-1-yl)-1H-pyrazolo[4,3-c]pyridin-3-yl)-2-fluorophenyl)-2-chlorobenzenesulfonamide]"
